From PMC6423129, “Activity and structural analysis of GRL-117C: a novel small molecule CCR5 inhibitor active against R5-tropic HIV-1s” (Scientific Reports, 2019)
Where a name gives a salt, the structure may show the parent alone. Read-outs that look alike come from different tables or passages of the source.

How the values were obtained:
R5-HIV-1BaL = assay: p24 assay using PBMCs and R5-HIV-1BaL; type: cell-based; conditions: Ba-L (PBMCs), day 7
Method: (§1) MAGI-CCR5 cells[18] were maintained in DMEM supplemented with 10% fetal calf serum (FCS: Gemini Bio-Products, West Sacramento, CA), 200 μg/ml G418, 100 μg/ml hygromycin B, and 100 μg/ml zeomycin. The Chinese hamster ovary (CHO) cells expressing CCR5[19] were maintained in Ham’s F-12 medium (GIBCO-BRL, Rockville, MD) supplemented with 10% FCS, 50 U/ml penicillin, and 50 μg/ml streptomycin in the presence of 5 μg/ml blasticidin S hydrochloride. TZM-bl cells were obtained from the NIH AIDS Reagent Program, and were cultured in DMEM with 10% FCS. Peripheral blood mononuclear cells (PBMCs) were isolated from buffy coats of HIV-1 seronegative individuals, and were activated with 10 μg/ml phytohemagglutinin (PHA) prior to use[16]. A laboratory wild-type R5-HIV-1 strain (HIV-1Ba-L)[37] was employed for drug susceptibility assays. AD101 (experimental CCR5 inhibitor) and VVC-resistant HIV clones[7],[8] were provided by Dr. John P. Moore of Cornell University for this study. The clones were propagated with activated PBMCs, and were used for the assays. A clinical HIV-1 strain, HIV-1KP-5pc, and an MVC-resistant isolate, HIV-1KP-5mvcR, were prepared and used for antiviral assays, as previously described[10],[38]. The following reagents (plasmids) for T/F HIV-1 viruses[22],[24] were obtained through the NIH AIDS Reagent Program, Division of AIDS, NIAID, NIH: pCH040.c/2625 (cat# 11740), pCH106.c/2633 (cat# 11743), pTHRO.c/2626 (cat# 11745), and pCH058.c/2960 (cat# 11856), from Dr. John Kappes and Dr. Christina Ochsenbauer.
(§2) Antiviral assays using PHA-PBMCs (p24 assay) were conducted as previously reported[16],[38]. In brief, PHA-PBMCs (1 × 10^6/ml) were exposed to 50 TCID50 of HIV-1Ba-L or drug-resistant HIV-1 infectious clones in the presence or absence of various concentrations of drugs; 10-fold serial dilutions were performed in 96-well microculture plates. The amount of p24 antigens produced by the cells was determined on day 7 in the culture via a commercially available ELISA kit (PerkinElmer). The p24 production level in drug-free control cell cultures was used as the reference. […] Antiviral assays using MAGI-CCR5 cells (MAGI assay) were conducted as previously reported[16],[39]. Single-round virus infection assays using TZM-bl cells infected with R5-HIV-1s (HIV-1YU2, HIV-1KP-5pc, and HIV-1KP-5mvcR)[10] were also conducted as previously described.

pCH0.6.c/2633 = assay: MAGI assay, T/F HIV-1 clone pCH0.6.c/2633; type: cell-based; conditions: Human immunodeficiency virus 1, MAGI
Text: (§3) We also examined the activity of GRL-compounds against Transmitter/founder (T/F) HIV-1 viruses. T/F viruses are involved in the initial infection. It is considered that T/F viruses virtually always use CCR5 rather than CXCR4 and infect T cells but not macrophages because […] of CD4 is needed to mediate virus entry for the initial transmission[20]–[24]. […] We obtained four HIV-1 T/F infectious clones. We determined the antiviral activity of GRL-117C, GRL-10007C and GRL-10018C on these HIV-1 clones using MAGI assay.
as §1, with “A clinical HIV-1 strain, HIV-1KP-5pc, and an MVC-resistant isolate, HIV-1KP-5mvcR, were prepared and used for antiviral assays, as previously described[10],[38].” left out
as §2

[1] = system: CC101.19 cl.7 (AD101 resistant); assay: microbe, parasite or virus in culture; type: cell-based, HIV-1; conditions: for fold increases of IC50s compared to wild type (CC1/85 cl.7): CC101.19 cl.7 (AD101 resistant) vs CC1/85 cl.7
Method: as §1, §2

[2] = system: D1/85.16 cl.23 (VVC resistant); assay: microbe, parasite or virus in culture; type: cell-based, HIV-1; conditions: for fold increases of IC50s compared to wild type (CC1/85 cl.7): D1/85.16 cl.23 (VVC resistant) vs CC1/85 cl.7
Method: as §1, §2

pTHRO.c/2626 = assay: MAGI assay, T/F HIV-1 clone pTHRO.c/2626; type: cell-based; conditions: Human immunodeficiency virus 1, MAGI
Text: as §3
as §1, with “A clinical HIV-1 strain, HIV-1KP-5pc, and an MVC-resistant isolate, HIV-1KP-5mvcR, were prepared and used for antiviral assays, as previously described[10],[38].” left out
as §2

R5-HIV-1Ba-L = assay: MAGI assay using MAGI/CCR5 cells and R5-HIV-1Ba-L; type: cell-based; conditions: Ba-L (MAGI)
Method: as §1, §2

pCH040.c/2625 = assay: MAGI assay, T/F HIV-1 clone pCH040.c/2625; type: cell-based; conditions: Human immunodeficiency virus 1, MAGI
Text: as §3
as §1, with “A clinical HIV-1 strain, HIV-1KP-5pc, and an MVC-resistant isolate, HIV-1KP-5mvcR, were prepared and used for antiviral assays, as previously described[10],[38].” left out
as §2

CC1/85 cl.7 = assay: Anti-HIV-1 assay, drug-naive clinical strain CC1/85 cl.7; type: cell-based
Method: as §1, §2

CC1/85 cl.6 = assay: Anti-HIV-1 assay, drug-naive clinical strain CC1/85 cl.6; type: cell-based; conditions: CC1/85 cl.6, drug naive R5-HIV-1 clinical strain, read-out: IC50
Method: as §1, §2

pCH058.c/2960 = assay: MAGI assay, T/F HIV-1 clone pCH058.c/2960; type: cell-based; conditions: Human immunodeficiency virus 1, MAGI
Text: as §3
as §1, with “A clinical HIV-1 strain, HIV-1KP-5pc, and an MVC-resistant isolate, HIV-1KP-5mvcR, were prepared and used for antiviral assays, as previously described[10],[38].” left out
as §2

HIV-1KP-5pc = assay: TZM-bl single-round infection assay, HIV-1KP-5pc; type: cell-based; conditions: for IC50: KP-5pc, drug-sensitive clinical strain, TZM-bl assay, mean ± SD
Method: as §1, §2

HIV-1KP-5mvcR = assay: TZM-bl single-round infection assay, MVC-resistant HIV-1KP-5mvcR; type: cell-based
Method: as §1, §2

HIV-1YU2 = assay: TZM-bl single-round infection assay, HIV-1YU2; type: cell-based; conditions: Human immunodeficiency virus 1, YU2, drug-sensitive, mean ± SD
Method: as §1, §2

CCR5 [3] = target: T1, CCR5 (Homo sapiens, UniProt P51681); assay: Inhibition of 125I-RANTES binding to CCR5 (CCR5+ CHO cells)
T1 construct: expressed in transfected cells; host or cells: Chinese hamster ovary (CHO) cells expressing CCR5
T1 sequence (P51681 whole entry): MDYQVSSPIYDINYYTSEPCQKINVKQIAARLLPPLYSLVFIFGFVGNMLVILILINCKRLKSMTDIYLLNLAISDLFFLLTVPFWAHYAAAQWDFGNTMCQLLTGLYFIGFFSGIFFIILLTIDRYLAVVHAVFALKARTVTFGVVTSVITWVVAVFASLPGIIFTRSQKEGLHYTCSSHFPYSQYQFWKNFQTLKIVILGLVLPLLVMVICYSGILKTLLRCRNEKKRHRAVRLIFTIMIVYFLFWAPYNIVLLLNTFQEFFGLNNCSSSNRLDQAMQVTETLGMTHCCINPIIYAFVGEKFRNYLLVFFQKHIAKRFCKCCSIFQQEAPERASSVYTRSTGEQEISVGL
Method: (§4) In order to determine whether GRL derivatives block the binding of CC-chemokines to CCR5, we conducted a CC-chemokine binding inhibition assay using ^125I-labeled CC-chemokines (^125I-RANTES, ^125I-MIP-1α, and ^125I-MIP-1β) and CCR5 expressing cells.
(§5) CCR5^+ CHO cells were incubated with (A) ^125I-MIP-1α, (B) ^125I-MIP-1β, and (C) ^125I-RANTES (200 ng/ml) in the presence or absence of varying concentrations of CCR5 inhibitors. Data are shown as means ± s.d. of three independent experiments.
(§6) The inhibition of the binding of ^125I-labeled CC-chemokines ([^125I] RANTES, [^125I] MIP-1α, or [^125I] MIP-1β) to CCR5 by various CCR5 inhibitors was measured as previously described. Calcium flux inhibition assays were also performed with CCR5 inhibitors, and were carried out with the Fluo-4 Direct^TM calcium reagent (Invitrogen); assays were conducted as previously described with minor modifications. In brief, CHO-CCR5 cells (5 × 10^5 cells) were exposed to Fluo-4 Direct^TM calcium reagent for 60 min at 37 °C in RPMI containing 5% FCS. Cells were then incubated with the test compound for 30 min at varying concentrations. Subsequently, cells were exposed to either MIP-1α, MIP-1β, or RANTES at 200 ng/ml. Relative increases in cytosolic Ca^2+ levels after chemokine exposure were determined with flow cytometry (FACSCalibur, BD Biosciences), and IC50 values of cytosolic Ca^2+ mobilization (Ca^2+ flux) were compared with the Ca^2+ flux level in drug-free control samples.

CCR5 [4] = target: T1, CCR5; assay: Inhibition of 125I-MIP-1α binding to CCR5 (CCR5+ CHO cells)
Method: as §4, §5, §6

CCR5 [5] = target: T1, CCR5; assay: Inhibition of 125I-MIP-1β binding to CCR5 (CCR5+ CHO cells)
Method: as §4, §5, §6

[6] = Human immunodeficiency virus 1, BAL, PBMC, 168 h
[7] = Human immunodeficiency virus 1, CC101.19 cl.7 (AD101 resistant)
[8] = Human immunodeficiency virus 1, D1/85.16 cl.23 (VVC resistant)
[9] = Human immunodeficiency virus 1, BAL
[10] = Human immunodeficiency virus 1, TZM-bl

Row | SMILES | IC50 (R5-HIV-1BaL; [6]) | IC90 (R5-HIV-1BaL; [6]) | IC50 (pCH0.6.c/2633) | IC90 ([1]; Human immunodeficiency virus 1) | IC50 [1, 7] | IC90 ([2]; Human immunodeficiency virus 1) | IC50 [2, 8] | IC50 (pTHRO.c/2626) | IC50 (R5-HIV-1Ba-L; [9]) | IC90 (R5-HIV-1Ba-L; [9]) | IC50 (pCH040.c/2625) | IC50 (CC1/85 cl.7; Human immunodeficiency virus 1) | IC90 (CC1/85 cl.7; Human immunodeficiency virus 1) | IC50 (CC1/85 cl.6; Human immunodeficiency virus 1) | IC50 (pCH058.c/2960) | fold increases of IC50s compared to wild type (CC1/85 cl.7) [1] | fold increases of IC50s compared to wild type (CC1/85 cl.7) [2] | further results
1 | CCCCN1C(=O)[C@@H]([C@H](O)C2CCCCC2)NC(=O)C12CCN(Cc1ccc(Oc3ccc(C(=O)O)cc3)cc1)CC2 [APL, 4-[4-[(3 R)-1-butyl-3-[(1 R)cyclohexylhydroxymethyl]-2,5-dioxo-1,4,9-triazaspiro [5.5]undec-9 ylmethyl]phenoxy] benzoic acid hydrochloride] | 2.6 nM | 13.4 nM | 1.9 ± 0.2 nM | 200 nM | 16.3 nM | 98.6 nM | 8.6 nM | 0.9 ± 0.1 nM | 0.2 nM | 4.9 nM | 0.7 ± 0.2 nM | 1.8 nM | 11.3 nM | 1.5 nM | 1.7 ± 0.2 nM |  |  | 
2 | CCCCOCCOc1ccc(-c2ccc3c(c2)/C=C(/C(=O)Nc2ccc([S@@+]([O-])Cc4cncn4CCC)cc2)CCCN3CC(C)C)cc1 [CVC, cenicriviroc] |  |  |  |  |  |  |  |  |  |  |  |  |  |  |  |  |  | IC90 (HIV-1KP-5pc; [10]): 105 nM; IC50 (HIV-1KP-5pc; [10]): 4.1 nM; IC50 (HIV-1KP-5pc): 4.9 ± 2.2 nM; IC50 (HIV-1KP-5mvcR; [10]): 260 ± 352 nM; IC90 (HIV-1KP-5mvcR; [10]): > 300 nM; fold change of IC50 values between HIV-1KP-5pc (wild type) and HIV-1KP-5mvcR (HIV-1KP-5mvcR; KP-5mvcR vs KP-5pc / wild type): 63 fold; IC50 (HIV-1YU2): 1.1 ± 0.7 nM; IC90 (HIV-1YU2): 6.2 nM
3 | Cc1ccc(-c2ccc3c(c2)C=C(C(=O)Nc2ccc(C[N+](C)(C)C4CCOCC4)cc2)CCC3)cc1.[Cl-] [TAK-779] |  |  |  |  |  |  |  |  |  |  |  |  |  |  |  | (×14) fold | (×5.9) fold | IC50 (R5-HIV-1BaL): 31.6 nM; IC90 (R5-HIV-1BaL): 187 nM; IC50 ([1]; CC101.19 cl.7 (AD101 resistant), read-out: IC50): 400 nM; IC90 ([1]; CC101.19 cl.7 (AD101 resistant), read-out: IC90): > 1000 nM; IC50 ([2]; D1/85.16 cl.23 (VVC resistant), read-out: IC50): 166 nM; IC90 ([2]; D1/85.16 cl.23 (VVC resistant), read-out: IC90): 747 nM; IC50 (R5-HIV-1Ba-L): 15.7 nM; IC90 (R5-HIV-1Ba-L): 88.1 nM; IC50 (CC1/85 cl.7; CC1/85 cl.7, drug naive R5-HIV-1 clinical strain, read-out: IC50): 28.3 nM; IC90 (CC1/85 cl.7; CC1/85 cl.7, drug naive R5-HIV-1 clinical strain, read-out: IC90): 101 nM; IC50 (CC1/85 cl.6): 22.7 nM
4 | CCO/N=C(\c1ccc(Br)cc1)C1CCN(C2(C)CCN(C(=O)c3c(C)cc[n+]([O-])c3C)CC2)CC1 [SCH-C] | 13.9 nM | 97.2 nM |  | > 1000 nM | > 1000 nM | > 1000 nM | 412 nM |  | 4.8 nM | 15.9 nM |  | 6.1 nM | 67.7 nM | 5.2 nM |  |  |  | 
5 | C=CCN(C(=O)OCC1COC2OCCC12)C1CC2CCC(C1)N2CCC(C)(CN(C)S(=O)(=O)c1ccccc1)c1ccccc1 (stereo not shown) [GRL-10018C] | 18.7 nM | 155 nM | 8.8 ± 4.2 nM | 553 nM | 52.5 nM | 642 nM | 61.3 nM | 3.9 ± 1.1 nM | 2.9 nM | 27.5 nM | 7.2 ± 1.4 nM | 4.9 nM | 34.9 nM |  | 8 ± 2.3 nM | (×11) fold | (×12.5) fold | EC50 (CCR5 [3]): 17 nM; EC50 (CCR5 [4]): 0.3 nM; EC50 (CCR5 [5]): 0.4 nM; activity against MVC-resistant HIV-1 (HIV-1KP-5mvcR) (HIV-1KP-5mvcR; in words, data not shown): failed to demonstrate activity
